Test results taken from ChEMBL document CHEMBL3301562, “MMV Box screening against Plasmodium falciparum protein kinases and aminoacyl tRNA synthetases”.

What was measured:
Type in all cases: functional
[1] = target: T1, Putative uncharacterized protein pk7 (Plasmodium falciparum, UniProt O96214); experiment: Final concentrations were 1 uM ATP, 2 mM DTT, 20 mM MgCl2, 2 mM MnCl2, 0.01% BSA, and 6 ug/ml PK7, in a buffer of 20 mM Tris-HCl (pH 7.5). The enzyme itself was the only substrate present (since autophosphorylation occurs); 100 uM 1NA-PP1 was used as a control inhibitor. Incubation time was 3 hours.
T1 sequence (O96214 whole entry): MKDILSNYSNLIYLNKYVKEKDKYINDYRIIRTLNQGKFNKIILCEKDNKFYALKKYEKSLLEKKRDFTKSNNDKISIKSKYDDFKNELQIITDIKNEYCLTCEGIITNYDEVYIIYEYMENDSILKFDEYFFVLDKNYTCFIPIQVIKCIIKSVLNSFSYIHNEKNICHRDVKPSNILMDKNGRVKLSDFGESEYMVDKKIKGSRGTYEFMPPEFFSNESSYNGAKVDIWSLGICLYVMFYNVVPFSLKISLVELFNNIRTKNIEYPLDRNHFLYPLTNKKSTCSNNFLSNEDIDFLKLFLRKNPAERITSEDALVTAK

[2] = target: Calcium-dependent protein kinase 1 (Plasmodium falciparum, UniProt P62344); experiment: MMV: CDPK1 Protein kinase inhibition assay using recombinant PfCDPK1, syntide 2 peptide substrate, ATP and KinaseGlo to measure % inhibition at 1 uM MMV box compound.
Chain of Calcium-dependent protein kinase 1 (P62344 whole entry): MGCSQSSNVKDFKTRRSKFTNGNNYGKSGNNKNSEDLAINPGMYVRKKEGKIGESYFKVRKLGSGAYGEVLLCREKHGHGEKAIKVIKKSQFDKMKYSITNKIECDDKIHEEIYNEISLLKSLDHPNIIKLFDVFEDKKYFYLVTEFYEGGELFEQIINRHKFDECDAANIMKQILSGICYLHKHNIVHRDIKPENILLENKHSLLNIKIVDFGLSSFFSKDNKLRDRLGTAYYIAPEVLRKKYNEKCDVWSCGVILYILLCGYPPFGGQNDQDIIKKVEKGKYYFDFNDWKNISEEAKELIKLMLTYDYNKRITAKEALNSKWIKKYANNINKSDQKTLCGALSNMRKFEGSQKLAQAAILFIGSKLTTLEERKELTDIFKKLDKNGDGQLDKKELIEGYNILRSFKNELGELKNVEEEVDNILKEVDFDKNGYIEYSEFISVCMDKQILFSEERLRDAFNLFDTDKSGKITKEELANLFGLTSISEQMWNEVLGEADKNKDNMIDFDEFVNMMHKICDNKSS

Lysine--tRNA ligase = Lysine--tRNA ligase (Plasmodium falciparum (isolate 3D7), UniProt Q8IDJ8); experiment: MMV: KRS recombinant Plasmodium falciparum Lysyl-tRNA-synthetase, assay with yeast tRNA, ATP, and lysine and 3 uM MMV malaria box compound, assay read out with kinase glo as % inhibition.
Chain of Lysine--tRNA ligase (Q8IDJ8 whole entry): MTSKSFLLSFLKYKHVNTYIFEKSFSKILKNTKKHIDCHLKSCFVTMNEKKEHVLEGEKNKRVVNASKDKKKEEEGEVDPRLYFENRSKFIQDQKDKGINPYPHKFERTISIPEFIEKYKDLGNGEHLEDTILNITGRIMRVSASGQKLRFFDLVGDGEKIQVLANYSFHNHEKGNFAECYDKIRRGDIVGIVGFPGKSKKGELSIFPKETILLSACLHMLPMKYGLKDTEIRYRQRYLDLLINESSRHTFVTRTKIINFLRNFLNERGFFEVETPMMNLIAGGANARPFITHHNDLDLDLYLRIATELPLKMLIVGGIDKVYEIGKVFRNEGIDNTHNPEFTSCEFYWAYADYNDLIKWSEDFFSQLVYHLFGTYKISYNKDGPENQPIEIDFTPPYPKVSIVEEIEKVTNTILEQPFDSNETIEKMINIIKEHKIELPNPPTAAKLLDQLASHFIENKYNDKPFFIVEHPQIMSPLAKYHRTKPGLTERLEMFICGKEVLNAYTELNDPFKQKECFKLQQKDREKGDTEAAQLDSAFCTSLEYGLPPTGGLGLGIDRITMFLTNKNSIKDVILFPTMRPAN

[3] = target: T2, Calcium-dependent protein kinase 4 (Plasmodium falciparum (isolate 3D7), UniProt Q8IBS5); experiment: MMV: CDPK4 Protein kinase inhibition assay using recombinant PfCDPK4, syntide2 peptide substrate, ATP and KinaseGlo to measure % inhibition at 1 uM MMV box compound.
T2 sequence (Q8IBS5 whole entry): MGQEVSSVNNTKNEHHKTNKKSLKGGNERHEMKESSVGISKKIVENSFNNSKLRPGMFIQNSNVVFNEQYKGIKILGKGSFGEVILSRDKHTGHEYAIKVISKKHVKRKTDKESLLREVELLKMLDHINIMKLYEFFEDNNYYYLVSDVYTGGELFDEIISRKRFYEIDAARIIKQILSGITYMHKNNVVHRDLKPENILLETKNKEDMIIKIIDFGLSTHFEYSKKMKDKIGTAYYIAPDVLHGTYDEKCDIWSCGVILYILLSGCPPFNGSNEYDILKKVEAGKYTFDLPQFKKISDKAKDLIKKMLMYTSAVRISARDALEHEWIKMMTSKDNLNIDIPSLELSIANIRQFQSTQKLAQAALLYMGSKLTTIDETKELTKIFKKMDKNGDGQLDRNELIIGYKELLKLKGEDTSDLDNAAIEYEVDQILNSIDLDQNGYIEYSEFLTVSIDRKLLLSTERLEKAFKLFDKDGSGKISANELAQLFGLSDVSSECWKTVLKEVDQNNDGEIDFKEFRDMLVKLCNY

Proline--tRNA ligase = target: T3, Proline--tRNA ligase (Plasmodium falciparum (isolate 3D7), UniProt Q8I5R7); experiment: MMV: ProRS recombinant Plasmodium falciparum Prolyl-tRNA-synthetase, assay with yeast tRNA, ATP, and proline and 3 uM MMV malaria box compound, assay read out with kinase glo as % inhibition.
T3 sequence (Q8I5R7 whole entry): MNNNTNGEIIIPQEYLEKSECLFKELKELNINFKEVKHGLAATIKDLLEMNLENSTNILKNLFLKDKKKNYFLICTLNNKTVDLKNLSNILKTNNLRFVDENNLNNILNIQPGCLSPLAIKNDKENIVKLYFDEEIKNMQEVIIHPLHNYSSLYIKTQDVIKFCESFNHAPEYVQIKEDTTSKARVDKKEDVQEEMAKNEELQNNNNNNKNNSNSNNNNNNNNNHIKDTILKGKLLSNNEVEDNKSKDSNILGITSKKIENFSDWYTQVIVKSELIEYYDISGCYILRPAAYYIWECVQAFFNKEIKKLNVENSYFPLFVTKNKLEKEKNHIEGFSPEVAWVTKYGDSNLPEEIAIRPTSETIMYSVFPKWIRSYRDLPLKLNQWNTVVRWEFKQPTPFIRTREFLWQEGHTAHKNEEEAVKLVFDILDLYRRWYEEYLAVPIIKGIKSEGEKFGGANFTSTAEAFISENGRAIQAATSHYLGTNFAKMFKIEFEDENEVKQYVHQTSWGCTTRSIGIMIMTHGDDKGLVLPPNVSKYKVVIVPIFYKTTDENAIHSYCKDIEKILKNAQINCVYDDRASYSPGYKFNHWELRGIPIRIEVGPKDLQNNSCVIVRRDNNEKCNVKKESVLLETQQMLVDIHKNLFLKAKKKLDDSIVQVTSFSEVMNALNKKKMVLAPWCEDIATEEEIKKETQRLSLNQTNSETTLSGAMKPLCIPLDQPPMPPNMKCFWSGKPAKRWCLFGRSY

[4] = target: T4, Mitogen-activated protein kinase (Plasmodium falciparum, UniProt Q25917); experiment: Final concentrations were 1 uM ATP, 0.5 mM DTT, 1 mM MgCl2, 0.5 mg/mL BSA, and 10 ug/ml MAP2 in a buffer of 50 mM HEPES (pH 7.0). 0.5 mg/mL histone III-S served as the substrate (13); 100 uM AMP-PNP, an ATP analog, was used as a control inhibitor. Incubation time was 4 hours.
T4 sequence (Q25917 whole entry): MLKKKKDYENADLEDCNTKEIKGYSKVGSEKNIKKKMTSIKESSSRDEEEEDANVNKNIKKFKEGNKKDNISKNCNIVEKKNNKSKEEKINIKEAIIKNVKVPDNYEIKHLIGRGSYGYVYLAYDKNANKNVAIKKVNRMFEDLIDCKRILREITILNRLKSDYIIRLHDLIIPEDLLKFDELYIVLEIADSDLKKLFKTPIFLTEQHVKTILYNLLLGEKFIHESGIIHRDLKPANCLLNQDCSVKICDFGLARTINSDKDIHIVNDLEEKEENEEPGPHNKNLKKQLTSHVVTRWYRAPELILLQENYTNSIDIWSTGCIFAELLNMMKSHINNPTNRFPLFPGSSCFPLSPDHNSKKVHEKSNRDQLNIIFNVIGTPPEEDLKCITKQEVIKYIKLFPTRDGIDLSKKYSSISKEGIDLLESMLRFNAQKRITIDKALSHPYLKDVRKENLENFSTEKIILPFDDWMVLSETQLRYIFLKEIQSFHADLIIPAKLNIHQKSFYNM

[5] = target: T5, Cdk-related protein kinase 6 (Plasmodium falciparum, UniProt O77239); experiment: Final concentrations were 1.5 uM ATP, 5 mM MnCl2, and 15 ug/ml PK6 in a buffer of 100 mM Tris-HCl (pH 7.5). 50 ug/mL MBP was provided as the substrate; 10 uM staurosporine was used as a control inhibitor. Incubation time was 3 hours and 40 minutes.The catalytic activity of each kinase was considered proportional to ATP consumed, as determined from measurements of residual [ATP] with the luciferase-based reagent Kinase-Glo (Promega) following incubation. Luminescence (proportional to residual [ATP]) was measured on the plate readers FLx800 (BioTek Instruments, Winooski, VT, USA) and MicroBeta2.
T5 sequence (O77239 whole entry): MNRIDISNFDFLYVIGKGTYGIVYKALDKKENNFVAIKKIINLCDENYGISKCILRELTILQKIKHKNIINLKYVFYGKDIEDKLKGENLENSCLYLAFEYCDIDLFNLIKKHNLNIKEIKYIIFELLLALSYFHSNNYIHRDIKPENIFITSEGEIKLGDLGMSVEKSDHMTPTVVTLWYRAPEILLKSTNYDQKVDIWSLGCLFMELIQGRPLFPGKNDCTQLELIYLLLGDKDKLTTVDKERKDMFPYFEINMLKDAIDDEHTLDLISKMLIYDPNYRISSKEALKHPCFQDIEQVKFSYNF

Structure (SMILES)	IC50 [1] [nM]	IC50 [2] [nM]	IC50 (Lysine--tRNA ligase) [nM]	IC50 [3] [nM]	IC50 (Proline--tRNA ligase) [nM]	IC50 [4] [nM]	IC50 [5] [nM]
Fc1ccc2[nH]c3c(NCCCN4CCOCC4)ncnc3c2c1	> 1000	> 1000	> 2500	> 1000	> 2500	> 1000	> 1000
Cc1cccc(Nc2nc(N)c3ccccc3n2)c1	> 1000	> 1000	> 2500	> 1000	> 2500	> 1000	> 1000
CCn1c(CN2CCN(Cc3ccccc3)CC2)nc2cc(NC(=O)c3cccs3)ccc21	> 1000	> 1000	> 2500	> 1000	> 2500	> 1000	> 1000
COc1cc(OC)c(N(C)C(=O)c2cc3c(s2)-c2ccccc2S(=O)(=O)C3)cc1Cl	> 1000	> 1000	> 2500	> 1000	> 2500	> 1000	> 1000
COc1ccccc1CNC(=O)CCn1c(=O)[nH]c2ccsc2c1=O	> 1000	> 1000	> 2500	> 1000	> 2500	> 1000	> 1000
COc1ccc(Br)cc1C1Nc2ccc3ccccc3c2C2=C1C(=O)CC(c1ccccc1)C2 (stereo not given)	> 1000	> 1000	> 2500	> 1000	> 2500	> 1000	> 1000
Cc1cc(C=C2SC(=Nc3ccccc3)N(C3CCCC3)C2=O)c(C)n1-c1ccc(Cl)cc1	> 1000	> 1000	> 2500	> 1000	> 2500	> 1000	> 1000
CCc1ccc(Nc2cc(C)c3ccc(O)cc3n2)cc1	> 1000	> 1000	> 2500	> 1000	> 2500	> 1000	> 1000
CCCc1c(CC)c(=N)c2ccccc2n1C	> 1000	> 1000	> 2500	> 1000	> 2500	> 1000	> 1000
CCOC(=O)c1cnc2c(C)cc(C)cc2c1Nc1ccc(OC)c(OC)c1	> 1000	> 1000	> 2500	> 1000	> 2500	> 1000	> 1000
